Organism: Rattus norvegicus
Assay: Open TG-GATES - Regimen: Daily Repeat
Assay type: toxicity, organism-based, Sprague-Dawley
Parameters: regimen Daily Repeat, gender Male, age 6 weeks
Settings: in vivo, iv, 0 mg/kg, route intravenous injection, dose level Control; for APTT / Bas / Eos / Fbg / Hb / Ht / Lym / MCH / MCHC / MCV / Mono / Neu / PT / Plat / RBC / Ret / WBC: tissue Blood; for KIDNEY_L / KIDNEY_R / KIDNEY_TOTAL: tissue Kidney; for LIVER: tissue Liver; for ALP / ALT / AST / BUN / CRE / Ca / Cl / DBIL / GLC / IP / K / LDH / Na / PL / RALB / TBIL / TC / TG / TP / gamma-GTP: tissue Plasma

In the case of `CC(=O)OCC1=C(C(=O)O)N2C(=O)[C@@H](NC(=O)Cc3cccs3)[C@H]2SC1` [CEPHALOTHIN], the TERMINAL_BW (72 h, time 3 day) is reported as 230.4 g, the APTT (72 h, time 3 day) is reported as 21.2 s and the Bas (72 h, time 3 day) is reported as 0%. The Eos (72 h, time 3 day) was 0.8%, the Fbg (72 h, time 3 day) was 292.4 mg/dL and the Hb (72 h, time 3 day) was 13.4 g/dL. It also gave a Ht (72 h, time 3 day) of 38.5%, a Lym (72 h, time 3 day) of 82% and an MCH (72 h, time 3 day) of 21.2 pg. It also gave an MCHC (72 h, time 3 day) of 34.9%, an MCV (72 h, time 3 day) of 60.8 fL and a Mono (72 h, time 3 day) of 3.4%. For the same compound, the Neu (72 h, time 3 day) was 13%, the PT (72 h, time 3 day) was 16.1 s and the Plat (72 h, time 3 day) was 120.3 x10_4/uL. The RBC (72 h, time 3 day) was 633 x10_4/ul, the Ret (72 h, time 3 day) was 6.8% and the WBC (72 h, time 3 day) was 100.4 x10_2/uL. For the same compound, the KIDNEY_L (72 h, time 3 day) was 1 g, the KIDNEY_R (72 h, time 3 day) was 1 g and the KIDNEY_TOTAL (72 h, time 3 day) was 2 g. For the same compound, the LIVER (72 h, time 3 day) was 10.5 g, the ALP (72 h, time 3 day) was 1655.6 IU/L and the ALT (72 h, time 3 day) was 38.8 IU/L. The AST (72 h, time 3 day) was 69.2 IU/L, the BUN (72 h, time 3 day) was 18 mg/dL and the CRE (72 h, time 3 day) was 0.2 mg/dL. The Ca (72 h, time 3 day) was 10.8 mg/dL, the Cl (72 h, time 3 day) was 105.4 meq/L and the DBIL (72 h, time 3 day) was 0 mg/dL. The GLC (72 h, time 3 day) was 185.8 mg/dL, the IP (72 h, time 3 day) was 6.9 mg/dL and the K (72 h, time 3 day) was 4.6 meq/L. It also gave an LDH (72 h, time 3 day) of 153.6 IU/L, a Na (72 h, time 3 day) of 140.8 meq/L and a PL (72 h, time 3 day) of 147.2 mg/dL. For the same compound, the RALB (72 h, time 3 day) was 3 g/dL, the TBIL (72 h, time 3 day) was 0.002 mg/dL and the TC (72 h, time 3 day) was 79.2 mg/dL. It also gave a TG (72 h, time 3 day) of 108.4 mg/dL, a TP (72 h, time 3 day) of 5.3 g/dL and a gamma-GTP (72 h, time 3 day) of 1.6 IU/L. It also gave a TERMINAL_BW ([…], time 7 day) of 261.3 g, a TERMINAL_BW ([…], time 14 day) of 318.6 g and a TERMINAL_BW ([…], time 28 day) of 376.6 g. It also gave an APTT ([…], time 7 day) of 22.6 s, a Bas ([…], time 7 day) of 0% and an Eos ([…], time 7 day) of 0.8%. It also gave a Fbg ([…], time 7 day) of 303 mg/dL, a Hb ([…], time 7 day) of 13.2 g/dL and a Ht ([…], time 7 day) of 37.9%. It also gave a Lym ([…], time 7 day) of 78.6%, an MCH ([…], time 7 day) of 20.5 pg and an MCHC ([…], time 7 day) of 34.8%. For the same compound, the MCV ([…], time 7 day) was 59 fL, the Mono ([…], time 7 day) was 2.2% and the Neu ([…], time 7 day) was 17.8%. It also gave a PT ([…], time 7 day) of 17 s, a Plat ([…], time 7 day) of 139.9 x10_4/uL and an RBC ([…], time 7 day) of 642.6 x10_4/ul. It also gave a Ret ([…], time 7 day) of 5.7%, a WBC ([…], time 7 day) of 107.7 x10_2/uL and an APTT ([…], time 14 day) of 23.5 s. For the same compound, the Bas ([…], time 14 day) was 0%, the Eos ([…], time 14 day) was 1% and the Fbg ([…], time 14 day) was 268.2 mg/dL. The Hb ([…], time 14 day) was 14.2 g/dL, the Ht ([…], time 14 day) was 39.3% and the Lym ([…], time 14 day) was 76.4%. It also gave an MCH ([…], time 14 day) of 20.3 pg, an MCHC ([…], time 14 day) of 36.1% and an MCV ([…], time 14 day) of 56.2 fL. For the same compound, the Mono ([…], time 14 day) was 3%, the Neu ([…], time 14 day) was 18.8% and the PT ([…], time 14 day) was 16.1 s. The Plat ([…], time 14 day) was 126.1 x10_4/uL, the RBC ([…], time 14 day) was 698.6 x10_4/ul and the Ret ([…], time 14 day) was 4.8%. The WBC ([…], time 14 day) was 110.4 x10_2/uL, the APTT ([…], time 28 day) was 26.5 s and the Bas ([…], time 28 day) was 0%. It also gave an Eos ([…], time 28 day) of 1%, a Fbg ([…], time 28 day) of 291.4 mg/dL and a Hb ([…], time 28 day) of 15.6 g/dL. For the same compound, the Ht ([…], time 28 day) was 42.3%, the Lym ([…], time 28 day) was 83.6% and the MCH ([…], time 28 day) was 19.8 pg. The MCHC ([…], time 28 day) was 36.9%, the MCV ([…], time 28 day) was 53.6 fL and the Mono ([…], time 28 day) was 2.6%. For the same compound, the Neu ([…], time 28 day) was 12%, the PT ([…], time 28 day) was 16.3 s and the Plat ([…], time 28 day) was 108 x10_4/uL. For the same compound, the RBC ([…], time 28 day) was 789.2 x10_4/ul, the Ret ([…], time 28 day) was 2.4% and the WBC ([…], time 28 day) was 108.4 x10_2/uL. It also gave a KIDNEY_L ([…], time 7 day) of 1 g, a KIDNEY_R ([…], time 7 day) of 1.1 g and a KIDNEY_TOTAL ([…], time 7 day) of 2.1 g. The KIDNEY_L ([…], time 14 day) was 1.2 g, the KIDNEY_R ([…], time 14 day) was 1.3 g and the KIDNEY_TOTAL ([…], time 14 day) was 2.5 g. It also gave a KIDNEY_L ([…], time 28 day) of 1.3 g, a KIDNEY_R ([…], time 28 day) of 1.3 g and a KIDNEY_TOTAL ([…], time 28 day) of 2.5 g. It also gave an LIVER ([…], time 7 day) of 11.4 g, an LIVER ([…], time 14 day) of 12.9 g and an LIVER ([…], time 28 day) of 14.2 g. It also gave an ALP ([…], time 7 day) of 1413.8 IU/L, an ALT ([…], time 7 day) of 35 IU/L and an AST ([…], time 7 day) of 71.2 IU/L. It also gave a BUN ([…], time 7 day) of 18.6 mg/dL, a CRE ([…], time 7 day) of 0.2 mg/dL and a Ca ([…], time 7 day) of 10.7 mg/dL. For the same compound, the Cl ([…], time 7 day) was 107 meq/L, the DBIL ([…], time 7 day) was 0 mg/dL and the GLC ([…], time 7 day) was 182 mg/dL. For the same compound, the IP ([…], time 7 day) was 7 mg/dL, the K ([…], time 7 day) was 4.4 meq/L and the LDH ([…], time 7 day) was 177.6 IU/L. It also gave a Na ([…], time 7 day) of 142 meq/L, a PL ([…], time 7 day) of 121.8 mg/dL and an RALB ([…], time 7 day) of 2.9 g/dL. For the same compound, the TBIL ([…], time 7 day) was 0.004 mg/dL, the TC ([…], time 7 day) was 64.8 mg/dL and the TG ([…], time 7 day) was 87.6 mg/dL. The TP ([…], time 7 day) was 5.3 g/dL, the gamma-GTP ([…], time 7 day) was 1.8 IU/L and the ALP ([…], time 14 day) was 1425 IU/L. For the same compound, the ALT ([…], time 14 day) was 34.4 IU/L, the AST ([…], time 14 day) was 63.4 IU/L and the BUN ([…], time 14 day) was 16.8 mg/dL. For the same compound, the CRE ([…], time 14 day) was 0.2 mg/dL, the Ca ([…], time 14 day) was 10.9 mg/dL and the Cl ([…], time 14 day) was 104.4 meq/L. It also gave a DBIL ([…], time 14 day) of 0 mg/dL, a GLC ([…], time 14 day) of 185.8 mg/dL and an IP ([…], time 14 day) of 6.9 mg/dL. For the same compound, the K ([…], time 14 day) was 4.4 meq/L, the LDH ([…], time 14 day) was 119.2 IU/L and the Na ([…], time 14 day) was 141.4 meq/L. It also gave a PL ([…], time 14 day) of 138 mg/dL, an RALB ([…], time 14 day) of 3.1 g/dL and a TBIL ([…], time 14 day) of 0.01 mg/dL. The TC ([…], time 14 day) was 67.8 mg/dL, the TG ([…], time 14 day) was 96.8 mg/dL and the TP ([…], time 14 day) was 5.8 g/dL. For the same compound, the gamma-GTP ([…], time 14 day) was 3.2 IU/L, the ALP ([…], time 28 day) was 967 IU/L and the ALT ([…], time 28 day) was 31.8 IU/L. The AST ([…], time 28 day) was 64.2 IU/L, the BUN ([…], time 28 day) was 18.2 mg/dL and the CRE ([…], time 28 day) was 0.2 mg/dL. The Ca ([…], time 28 day) was 10.4 mg/dL, the Cl ([…], time 28 day) was 105.4 meq/L and the DBIL ([…], time 28 day) was 0 mg/dL. The GLC ([…], time 28 day) was 188.6 mg/dL, the IP ([…], time 28 day) was 5.9 mg/dL and the K ([…], time 28 day) was 4.3 meq/L. For the same compound, the LDH ([…], time 28 day) was 181.6 IU/L, the Na ([…], time 28 day) was 142.6 meq/L and the PL ([…], time 28 day) was 134.8 mg/dL. For the same compound, the RALB ([…], time 28 day) was 3.1 g/dL, the TBIL ([…], time 28 day) was 0.004 mg/dL and the TC ([…], time 28 day) was 64 mg/dL. The TG ([…], time 28 day) was 131 mg/dL, the TP ([…], time 28 day) was 6.1 g/dL and the gamma-GTP ([…], time 28 day) was 1 IU/L.

— ChEMBL document CHEMBL3885861, “Open TG-GATES”
